In patent US20240052079A1 (OREGON HEALTH & SCIENCE UNIVERSITY, priority 2021, published 2024):
Where two headings read alike, the source gives them in different places.

Tests used:
[1] = tested on: human dental pulp stem cells (hDPSC); assay: Cytotoxicity (MTT) assay, hDPSC; conditions: for IC50: read-out: IC50 DPSC; for biocompatibility compared with methacrylates: DPSC
Protocol: (§1) For the cytotoxicity assay, two cell types were tested—odontoblast-like cell line (OD-21) and human dental pulp stem cells (hDPSC) (cat #PT5025, Lonza). […] Cells were kept in an incubator at 37° C., under humidified atmosphere with 5% CO 2 for 2-3 days until confluence was reached. Next, cells were washed with Dulbecco's phosphate buffered saline solution (PBS—Thermo Fisher Scientific) and detached from the culture flasks using 0.05% trypsin/0.02% EDTA (Sigma). Cells were counted using a hemocytometer, then 10,000 cells per well were seeded in 96-well plates for 24 hours (n=6).
(§2) From these stocks, six different concentrated solutions (0.05, 0.1, 0.5, 1, 5 and 10 mM) were prepared in cell culture medium (DMEM for OD-21 and α-MEM for DPSC) and 100 μl per well was used to incubate the cells.
(§3) Next, 200 μl of DMSO was added to each well, plates were gently agitated and the optical density was read at 570 nm and 630 nm in a spectrophotometer (Epoch Microplate Spectrophotometer, BioTek Instruments Inc, Winooski, VT, USA). OD-21 and DPSCs cultured in the medium free from the monomers were used as negative controls. Additionally, since monomer fluorescence could affect the readings, 10 mM samples of each tested monomer were incubated without cells and their absorbance measured to provide a second control (i.e. medium control). The percentage of cell viability was calculated according to the equations:
(§4) ODcells=(OD570 exper−OD630 exper)−(OD570 med contr−OD630 med contr) Equation (3)
(§5) where: ODcell is the absorbance of the remaining cells after exposure; ODexper is the absorbance of the experimental specimens at 570 nm and 630 nm; ODmed contr is the absorbance of the 10 mM solution of each monomer without cells at 570 nm and 630 nm.
(§6) where: CV (%) is percentage of cell viability in relation to the negative control (cells+medium free from the monomers); ODcells neg contr is the cells absorbance of the negative control; ODcells exper is the cells absorbance of the experimental samples.
(§7) The half maximal inhibitory concentration (IC50) of each tested monomer was determined based on the plots of cell inhibition (%) as a function of the monomers concentration (mM) using GraphPad software.

[2] = Hydrolytic degradation kinetics of neat monomers by 1H NMR; format: physicochemical; conditions: for Percent remaining monomer: 50 mM monomer, aqueous pH=1, 37° C.; for half-life at 50 mM: fit to exponential decay curves, pH=1, read-out: monomer half-life (converted); for final degradation percentage: over one month, acidic aqueous conditions (pH=1)
Protocol: Neat monomers were subject to the hydrolytic degradation kinetics assay. An aqueous solution (pH=1) was prepared using HPLC grade water and adjusted using 1.0 M HCI. A 50 mM solution of each monomer (n=3) was prepared using 1.0 mL of the acidic aqueous solution. A capillary tube was filled with a 50 mM solution of tetramethylammonium bromide dissolved in D2O and flame sealed. The capillary tube was placed at the bottom on the NMR tube to allow the “locking on” of the instrument and to act as an internal standard. ^1H NMR spectra were obtained using a water suppression by excitation sculpting experiment. After the initial reading, the NMR tubes were flame sealed and incubated at 37° C. During the first week and after 12, 19, and 30 days, the samples were removed from incubation to obtain water suppressed ^1H NMR spectra. To determine the amount of monomer degradation, spectra were first aligned using the ITSD singlet peak and then an integration region unique to a monomer vinyl proton and an integration region unique to a degradation product (methacrylic or acrylic acid) vinyl proton were used to calculate the ratio of monomer to degradation product. […] Additional integration regions on either side of the vinyl region were used to determine the average amount of noise in each spectra. Degradation product values with a signal to noise ratio of less than 10 were considered to show no measurable amount of degradation.

[3] = tested on: odontoblast-like cell line (OD-21); assay: Cytotoxicity (MTT) assay, OD-21 cells; conditions: for IC50: read-out: IC50 OD-21; for cell viability, comparison between monomers: OD-21, at 10 and 5 mM
Protocol: as §1, §2, §3, §4, §5, §6, §7

[4] = Cytotoxicity (MTT) assay, OD-21 cells; conditions: mouse
Protocol: as §1, §2, §3, §4, §5, §6, §7

[5] = Partition coefficient (logP); format: physicochemical; conditions: values not given; source of logP not stated
From the text: When stored dry, all materials had flexural strengths and elastic moduli that were statistically similar to the control. […] […]. The logP determines the likelihood of a compound to partition into water or octanol, with the most hydrophilic compounds presenting lower logP values. Amides are in general more hydrophilic than methacrylates because of the […] of the nitrogen atom in the amide compared to the oxygen in the methacrylate. In addition, the presence of a lone pair of electrons on the nitrogen leads to stabilization of the carbon-nitrogen bond by resonance with the carbonyl. The oxygen in the amide, in turn, assumes a partial negative charge (δ−), making it more prone to function as a hydrogen-bond acceptor. Conversely, the hydrogen of the N-H dipole is partially positively charged (δ+), which renders it a hydrogen-bond donor.

[6] = neat monomer, 24 hours exposure, MTT

In the case of `C=C(C)C(=O)OCCO` [HEMA, 2-hydroxyethyl methacrylate, reference compound], the IC50 ([1]; Homo sapiens, 24 h) is reported as 6.87 mM, the Percent remaining monomer ([2]; day 0) is reported as 99.2 ± 0.6% and the Percent remaining monomer ([2]; day 1) is reported as 93.1 ± 0.04%. The Percent remaining monomer ([2]; day 2) was 87.6 ± 0.02%, the Percent remaining monomer ([2]; day 3) was 81.3 ± 0.02% and the Percent remaining monomer ([2]; day 4) was 76.5 ± 0.01%. For the same compound, the Percent remaining monomer ([2]; day 5) was 71.3 ± 0.02%, the Percent remaining monomer ([2]; day 6) was 66.1 ± 0.02% and the Percent remaining monomer ([2]; day 7) was 61.9 ± 0.01%. The Percent remaining monomer ([2]; day 12) was 43.1 ± 0.02%, the Percent remaining monomer ([2]; day 19) was 25.2 ± 0.02% and the Percent remaining monomer ([2]; day 30) was 10.6 ± 0.1%. The half-life at 50 mM [2] was 9.5 days, the final degradation percentage [2] was 89.38% and the IC50 ([3]; Mus musculus, 24 h) was 15.4 mM. For the same compound, the “cell viability, comparison between monomers” value [3] was “the highest”.

In the case of “urethane dimethacrylate [UDMA, reference compound]”, the IC50 [1, 6] is reported as 10.3 mM and the IC50 [3, 6] is reported as 7.94 mM.

Compound `C=CC(=O)NN1CCCN(NC(=O)C=C)CC1` [BAADA, N,N′-bis(acrylamido) 1,4-diazepane] has an IC50 ([1]; Homo sapiens, 24 h) of 3.65 mM, a Percent remaining monomer ([2]; day 0) of 100.0 ± 0.0% and a Percent remaining monomer ([2]; day 1) of 100.0 ± 0.0%. The Percent remaining monomer ([2]; day 2) was 100.0 ± 0.0%, the Percent remaining monomer ([2]; day 3) was 100.0 ± 0.0% and the Percent remaining monomer ([2]; day 4) was 99.8 ± 0.2%. It also gave a Percent remaining monomer ([2]; day 6) of 100.0 ± 0.0%, a Percent remaining monomer ([2]; day 12) of 99.6 ± 0.4% and a Percent remaining monomer ([2]; day 19) of 92.3 ± 0.7%. It also gave a Percent remaining monomer ([2]; day 30) of 98.9 ± 1.2%, a final degradation percentage [2] of 1.13% and an IC50 ([3]; Mus musculus, 24 h) of 9.98 mM.

With “N,N-Diethyl-1,3-bis(acrylamido)propane [DEBAAP, reference compound]” the IC50 [1, 6] was 8.43 mM and the IC50 [3, 6] was 7.11 mM.

In the case of `C=CC(=O)N(C)CCCN(C)CCCN(C)C(=O)C=C`, the “biocompatibility compared with methacrylates” value ([1]; 5 mM) is reported as “less biocompatible than the tested methacrylates”, the IC50 ([1]; Homo sapiens, 24 h) is reported as 0.54 mM and the Percent remaining monomer ([2]; day 0) is reported as 100.0 ± 0.0%. For the same compound, the Percent remaining monomer ([2]; day 1) was 99.8 ± 0.01%, the Percent remaining monomer ([2]; day 2) was 100.0 ± 0.0% and the Percent remaining monomer ([2]; day 3) was 100.0 ± 0.0%. It also gave a Percent remaining monomer ([2]; day 4) of 100.0 ± 0.0%, a Percent remaining monomer ([2]; day 5) of 99.7 ± 0.01% and a Percent remaining monomer ([2]; day 6) of 100.0 ± 0.0%. For the same compound, the Percent remaining monomer ([2]; day 7) was 100.0 ± 0.0%, the Percent remaining monomer ([2]; day 12) was 100.0 ± 0.0% and the Percent remaining monomer ([2]; day 19) was 99.7 ± 0.3%. For the same compound, the Percent remaining monomer ([2]; day 30) was 98.7 ± 1.3%, the final degradation percentage [2] was 1.27% and the IC50 ([3]; Mus musculus, 24 h) was 4.75 mM. For the same compound, the “cell viability, comparison between monomers” value [3] was “the lowest cell viability”, the viability at 24 h, 5 mM [4] was 24% and the viability at 24 h, 10 mM [4] was 12%.

With `C=CC(=O)N(C)CCN(CCN(C)C(=O)C=C)CCN(C)C(=O)C=C` the “biocompatibility compared with methacrylates” value ([1]; 0.5 mM) was “less biocompatible than the tested methacrylates”, the IC50 ([1]; Homo sapiens, 24 h) was 1.07 mM and the Percent remaining monomer ([2]; day 0) was 100.0 ± 0.0%. For the same compound, the Percent remaining monomer ([2]; day 1) was 99.8 ± 0.2%, the Percent remaining monomer ([2]; day 2) was 99.8 ± 0.2% and the Percent remaining monomer ([2]; day 3) was 99.3 ± 0.7%. For the same compound, the Percent remaining monomer ([2]; day 4) was 99.2 ± 0.9%, the Percent remaining monomer ([2]; day 5) was 99.1 ± 0.7% and the Percent remaining monomer ([2]; day 6) was 99.0 ± 1.0%. For the same compound, the Percent remaining monomer ([2]; day 7) was 98.7 ± 1.3%, the Percent remaining monomer ([2]; day 19) was 96.7 ± 1.8% and the Percent remaining monomer ([2]; day 30) was 93.7 ± 0.7%. For the same compound, the half-life at 50 mM [2] was 350 days, the final degradation percentage [2] was 6.29% and the “logP, ranking among tested monomers” value [5] was “lower logP”. It also gave an IC50 ([3]; Mus musculus, 24 h) of 8.02 mM.
